Test results reported in PMC4503722, “Novel Phenotypic Outcomes Identified for a Public Collection of Approved Drugs from a Publicly Accessible Panel of Assays” (PLoS ONE, 2015).
Where two headings read alike, the source gives them in different places.

How the values were obtained:
Assay in all cases: cells
HCT116 = assay type: cell-based
[1] = system: nuclear β-catenin in C2C12 cells; assay type: cell-based
DLD-1 = assay type: cell-based
SW480 = assay type: cell-based
INS-1E cells = assay type: cell-based, rat
[2] = system: HCT116 cells treated with a GSK3β inhibitor; assay type: cell-based
[3] = system: endothelial tube formation in co-cultures of ECFCs and ADSCs treated with VEGF; assay type: cell-based, human
HeLa cells = assay type: cell-based; conditions: for EC50: read-out: CellCycle G2/M
NCI-H716 cells = assay type: cell-based, Human
[4] = Homo sapiens, HCT-116, basal, read-out: Basal_Viability ATP HCT116
[5] = Mus musculus, C2C12, IC50 / EC50, C2C12 beta-catenin translocation, read-out: Wnt Pathway
[6] = Homo sapiens, DLD-1, basal, read-out: Basal_Viability ATP DLD-1
[7] = Homo sapiens, SW480, basal, read-out: Basal_Viability ATP SW480
[8] = Rattus norvegicus; IC50 / EC50; INS-1E; read-out: Insulin Secretion
[9] = Homo sapiens, HCT-116, GSK3b inhibitor pretreated, read-out: GSK3b inh pretreated_Viability ATP HCT116
[10] = Homo sapiens, IC50 / EC50; endothelial tube area, ADSC/ECFC co-culture; read-out: Anti-Angiogenesis
[11] = Homo sapiens, HeLa, IC50 / EC50, HeLa
[12] = Homo sapiens; IC50 / EC50; NCI-H716; read-out: GLP 1 Secretion
[13] = Homo sapiens, HCT-116, read-out: GSK3b inh pretreated_Viability ATP HCT116
[14] = Homo sapiens, HCT-116, basal, HCT116, read-out: Basal_Viability ATP HCT116
[15] = Mus musculus, C2C12, S2 Table, module primary assay, 20 / 20.1 codes per legend, read-out: Wnt Pathway
[16] = Homo sapiens, DLD-1, basal, DLD-1, read-out: Basal_Viability ATP DLD-1
[17] = Homo sapiens, SW480, basal, SW480, read-out: Basal_Viability ATP SW480
[18] = Rattus norvegicus, INS-1E; read-out: Insulin Secretion
[19] = Homo sapiens, HCT-116, HCT116 pretreated with GSK3b inhibitor, read-out: GSK3b inh pretreated_Viability ATP HCT116
[20] = Homo sapiens; read-out: Anti-Angiogenesis
[21] = Homo sapiens, HeLa, S2 Table, HeLa, 20 = no response at highest concentration
[22] = Homo sapiens, NCI-H716; read-out: GLP 1 Secretion

Compound	IC50 (HCT116; [4]) [µM]	EC50 [1, 5] [µM]	IC50 (DLD-1; [6]) [µM]	IC50 (SW480; [7]) [µM]	EC50 (INS-1E cells; [8]) [µM]	IC50 [3, 10] [µM]	EC50 (HeLa cells; [11]) [µM]	EC50 (NCI-H716 cells; [12]) [µM]	IC50 (HCT116; [14]) [µM]	EC50 [1, 15] [µM]	IC50 (DLD-1; [16]) [µM]	IC50 (SW480; [17]) [µM]	EC50 (INS-1E cells; [18]) [µM]	IC50 [2, 19] [µM]	IC50 [3, 20] [µM]	EC50 (HeLa cells; [21]) [µM]	EC50 (NCI-H716 cells; [22]) [µM]	other results
NCCNc1ccc(NCCN)c2c1C(=O)c1ccncc1C2=O [pixantrone]	> 20	> 10	> 20	> 20	> 10	0.0465	0.0483	> 10	–	–	–	–	–	–	–	–	–	IC50 [2, 9]: 14.6 µM
C=CC(=O)Nc1cc2c(Nc3ccc(F)c(Cl)c3)ncnc2cc1OCCCN1CCOCC1 [Canertinib]	–	–	–	–	–	–	–	–	–	–	–	–	–	–	–	–	–	IC50 (HCT116; Homo sapiens, HCT-116, read-out: Basal_Viability ATP HCT116): 3.71 µM; EC50 ([1]; Mus musculus, C2C12, read-out: Wnt Pathway): 1 µM; IC50 (DLD-1; Homo sapiens, DLD-1, read-out: Basal_Viability ATP DLD-1): 0.841 µM; IC50 (SW480; Homo sapiens, SW480, read-out: Basal_Viability ATP SW480): 1.21 µM; EC50 (INS-1E cells; Rattus norvegicus, INS-1E, read-out: Insulin Secretion): > 10 µM; IC50 [2, 13]: 3.51 µM; IC50 ([3]; Homo sapiens, read-out: Anti-Angiogenesis): > 10 µM; EC50 (HeLa cells; Homo sapiens, HeLa): > 10 µM; EC50 (NCI-H716 cells; Homo sapiens, NCI-H716, read-out: GLP 1 Secretion): > 10 µM
O=c1[nH]c(=O)n([C@H]2C[C@H](O)[C@@H](CO)O2)cc1Br [Broxuridine]	> 20	> 10	> 20	> 20	> 10	3.85	> 10	> 10	–	–	–	–	–	–	–	–	–	IC50 [2, 9]: > 20 µM
CC(C)=CCC/C(C)=C/CC/C(C)=C/C(=O)OCC(=O)[C@@]1(O)CC[C@H]2[C@@H]3CCC4=CC(=O)C=C[C@]4(C)[C@H]3[C@@H](O)C[C@@]21C [prednisolone farnesil]	–	–	–	–	–	–	–	–	–	–	–	–	–	–	–	–	–	IC50 (HCT116; read-out: Basal_Viability ATP HCT116): 5.74 µM; EC50 ([1]; read-out: Wnt Pathway): > 10 µM; IC50 (DLD-1; read-out: Basal_Viability ATP DLD-1): 7.93 µM; IC50 (SW480; read-out: Basal_Viability ATP SW480): 8.11 µM; EC50 (INS-1E cells; read-out: Insulin Secretion): > 10 µM; IC50 ([2]; read-out: GSK3b inh pretreated_Viability ATP HCT116): 7.19 µM; IC50 ([3]; read-out: Anti-Angiogenesis): 3.34 µM; EC50 (HeLa cells): > 10 µM; EC50 (NCI-H716 cells; read-out: GLP 1 Secretion): > 10 µM
CN(C)/N=N/c1[nH]cnc1C(N)=O [dacarbazine]	–	–	–	–	–	–	–	–	> 20	> 10	> 20	> 20	> 10	> 20	4.59	> 10	> 10	–
CCCCCCCCCCCCCCCC[N+](C)(C)CCN(Cc1ccc(OC)cc1)c1ncccn1 [Tonzonium bromide]	–	–	–	–	–	–	–	–	3.41	> 10	4.05	5.08	> 10	5.31	3.07	> 10	17.8	–
CC(=O)Oc1ccccc1C(=O)Nc1ncc([N+](=O)[O-])s1 [nitazoxanide]	–	–	–	–	–	–	–	–	2.81	> 10	3.09	3.03	> 10	2.46	2.06	> 10	> 10	–
Clc1ccc(Nc2nnc(Cc3ccncc3)c3ccccc23)cc1 [vatalanib, reference compound]	–	–	–	–	–	–	–	–	–	–	–	19.5	–	10.5	0.111	> 10	–	IC50 (HCT116; Homo sapiens, HCT-116, 72 h, read-out: HCT-116 viab. IC50, Table 2, basal, 72 h, Cell TiterGlo, non-adherent, 20 coded): > 20 µM; activity in the Wnt potentiation module (in words) [1]: None of these agents, however, possessed appreciable activity; EC50 ([1]; Mus musculus, C2C12, Table 2, C2C12, […], 20 / 20.1 coded, read-out: Wnt pot. EC50): > 10 µM; IC50 (DLD-1; Homo sapiens, DLD-1, 72 h, Table 2, 72 h, Cell TiterGlo, non-adherent, 20 coded, read-out: DLD-1 viab. IC50): > 20 µM; IC50 (SW480; Homo sapiens, SW480, 72 h, Table 2, 72 h, Cell TiterGlo, non-adherent, 20 coded, read-out: SW480 viab. IC50): 19.5 µM; EC50 (INS-1E cells; Rattus norvegicus, INS-1E; read-out: Ins. sec. EC50): > 10 µM; IC50 ([2]; Homo sapiens, HCT-116, read-out: HCT-116 (GSK3β) viab. IC50, Table 2, GSK3β inhibitor LY2090314 20 nM, 72 h, Cell TiterGlo, 20 coded): 10.5 µM; IC50 ([3]; Homo sapiens; read-out: Anti-Angio IC50): 0.11 µM; G2/M IC50 / EC50 (HeLa cells): 20 (values shown as 20 indicate that the compound was tested in concentration-response and showed no response at the highest concentration tested (e.g. IC50 > 20 μM)); EC50 (NCI-H716 cells; Homo sapiens, NCI-H716; read-out: GLP1 sec. EC50): > 10 µM
O=C1c2c(O)cccc2Cc2cccc(O)c21 [Anthralin]	–	–	–	–	–	–	–	–	2.2	> 10	0.0667	1.57	> 10	16.3	0.604	> 10	> 10	–
CN1CC[C@H](c2c(O)cc(O)c3c(=O)cc(-c4ccccc4Cl)oc23)[C@H](O)C1 [Flavopiridol]	16.7	0.191	0.0684	2.11	> 10	0.114	> 10	> 10	–	–	–	–	–	–	–	–	–	IC50 [2, 13]: 0.297 µM
